{"source": "paper PMC6193938", "about": "“Characterization of a novel AICARFT inhibitor which potently elevates ZMP and has anti-tumor activity in murine models” (Scientific Reports, 2018)", "key": {"cell lines of Table 1": {"tested_on": "cell lines of Table 1", "assay": "Alamar Blue proliferation assay, average over cell lines", "assay_type": "cell-based", "details": "Homo sapiens", "protocol": "Cells lines were acquired from cell banks, see supplemental material, grown using the cell banks recommended culture conditions (Supplemental Table 3). In some experiments noted “low folate” the cells were washed and grown in folate free RPMI-1640 media (Gibco #27016-021) supplemented with 5 ml 1 M Hepes, 5 ml 100 mM Na pyruvate, 2.5 mg/ml glucose and 10% defined FBS (Hyclone #SH30070) per 500 mL media for 5–7 days to deplete intracellular folate levels prior to the start of the experiment. Where noted, cells were maintained in complete “high folate” RPMI-1640 media (ATCC #30-2001) with 10% defined FBS to contrast with the low folate conditions.\nCells were cultured using recommended culture conditions unless noted otherwise (Supplemental Table 3). Cells were plated, dosed with compound and incubated at 37 °C for approximately 2 doubling times as determined for each cell line. Cell Titer Glo (Promega) assay was used to measure proliferation according to manufacturer’s recommendations by measuring luminescence with Flexstation3 (Molecular Devices) with 500 ms integration time. […]\nFor a limited number of cell lines, compound dosing was performed under high or low folate conditions with cell viability being determined with Alamar Blue rather than an ATP dependent assay. […] The % inhibition for each sample was calculated and fit as described above."}, "[1]": {"tested_on": "AMPK T172 phosphorylation in MDA-MB-231met2 tumors", "assay": "Western analysis of tumors", "assay_type": "in vivo, mouse", "details": "30 and 60 mg/kg BIDx22 PO", "protocol": "(§1) The levels of total AMPKα and P70S6K are also shown. […] The levels of total AMPKα are also shown. […] Full images and the croppings used in this figure are shown in Supplemental Figures S14–S21.\n(§2) Antibodies were purchased as follows: pAMPK Thr172 (Cell Signaling #2535), p-p70S6 Thr389 (Cell Signaling #9205), total p70S6 (Cell Signaling #2708), total AMPKα (Cell Signaling #2793) and Actin (Sigma #A5441). Frozen tumor samples were lysed with 500 µL ice cold lysis buffer plus Halt protease inhibitor (ThermoFisher #78430) using a Power Gen 125 tissue grinder (Fisher Scientific). Western blots were run as described in the supplemental material.\n(§3) For the in vivo study with MDA-MB-231met2 (Figure 6A) 40 ug of total protein was resolved on a 10% Tris HCl Criterion XT precast gel (BioRad) at 100 V for 90 minutes. Transfer electrophoresed proteins to a 0.2 µm nitrocellulose membrane using Trans Blot Turbo System (BioRad). Block membranes for 1 hr at RT in 5% skim milk. Probe overnight 4°C for primary antibodies. Blots were washed 3-5 min in 20 mL TBS-0.1% Tween-20. Apply appropriate secondary antibody for 1-3 hours RT. Wash blots 3 x 5 min in 20 mL TBS-0.1% Tween20 and develop signal using Super Signal Western Femto kit (Thermo) on Image Reader LAS-4000 (Fuji Film Life Science)."}, "[2]": {"tested_on": "P70S6K T389 phosphorylation in MDA-MB-231met2 tumors", "assay": "Western analysis of tumors", "assay_type": "in vivo, mouse", "details": "30 and 60 mg/kg BIDx22 PO", "protocol": "as §1, §2, §3"}, "AMPKA": {"tested_on": "AMPKA", "assay": "CEREP protein kinase assay", "assay_type": "biochemical"}, "BRK": {"target": "T1, BRK (Homo sapiens, UniProt Q13882)", "T1 construct": "purchased CEREP Panlabs (Eurofins)", "T1 sequence (Q13882 whole entry)": "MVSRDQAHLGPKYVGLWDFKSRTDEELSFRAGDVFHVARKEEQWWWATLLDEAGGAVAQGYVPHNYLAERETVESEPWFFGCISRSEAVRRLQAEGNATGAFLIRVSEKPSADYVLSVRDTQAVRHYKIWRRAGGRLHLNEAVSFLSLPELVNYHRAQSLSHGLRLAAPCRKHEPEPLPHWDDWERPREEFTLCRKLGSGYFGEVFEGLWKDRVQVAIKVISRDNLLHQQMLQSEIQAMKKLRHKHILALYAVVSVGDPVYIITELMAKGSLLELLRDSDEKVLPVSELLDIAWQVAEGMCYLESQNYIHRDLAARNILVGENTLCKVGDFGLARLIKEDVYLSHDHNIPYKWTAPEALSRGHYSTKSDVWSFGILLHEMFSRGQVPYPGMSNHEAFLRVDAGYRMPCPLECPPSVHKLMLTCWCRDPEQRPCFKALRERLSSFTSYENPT", "assay": "CEREP protein kinase assay", "assay_type": "biochemical"}, "EPHA5": {"target": "T2, EPHA5 (Homo sapiens, UniProt P54756)", "T2 construct": "purchased CEREP Panlabs (Eurofins)", "T2 sequence (P54756 25-1037)": "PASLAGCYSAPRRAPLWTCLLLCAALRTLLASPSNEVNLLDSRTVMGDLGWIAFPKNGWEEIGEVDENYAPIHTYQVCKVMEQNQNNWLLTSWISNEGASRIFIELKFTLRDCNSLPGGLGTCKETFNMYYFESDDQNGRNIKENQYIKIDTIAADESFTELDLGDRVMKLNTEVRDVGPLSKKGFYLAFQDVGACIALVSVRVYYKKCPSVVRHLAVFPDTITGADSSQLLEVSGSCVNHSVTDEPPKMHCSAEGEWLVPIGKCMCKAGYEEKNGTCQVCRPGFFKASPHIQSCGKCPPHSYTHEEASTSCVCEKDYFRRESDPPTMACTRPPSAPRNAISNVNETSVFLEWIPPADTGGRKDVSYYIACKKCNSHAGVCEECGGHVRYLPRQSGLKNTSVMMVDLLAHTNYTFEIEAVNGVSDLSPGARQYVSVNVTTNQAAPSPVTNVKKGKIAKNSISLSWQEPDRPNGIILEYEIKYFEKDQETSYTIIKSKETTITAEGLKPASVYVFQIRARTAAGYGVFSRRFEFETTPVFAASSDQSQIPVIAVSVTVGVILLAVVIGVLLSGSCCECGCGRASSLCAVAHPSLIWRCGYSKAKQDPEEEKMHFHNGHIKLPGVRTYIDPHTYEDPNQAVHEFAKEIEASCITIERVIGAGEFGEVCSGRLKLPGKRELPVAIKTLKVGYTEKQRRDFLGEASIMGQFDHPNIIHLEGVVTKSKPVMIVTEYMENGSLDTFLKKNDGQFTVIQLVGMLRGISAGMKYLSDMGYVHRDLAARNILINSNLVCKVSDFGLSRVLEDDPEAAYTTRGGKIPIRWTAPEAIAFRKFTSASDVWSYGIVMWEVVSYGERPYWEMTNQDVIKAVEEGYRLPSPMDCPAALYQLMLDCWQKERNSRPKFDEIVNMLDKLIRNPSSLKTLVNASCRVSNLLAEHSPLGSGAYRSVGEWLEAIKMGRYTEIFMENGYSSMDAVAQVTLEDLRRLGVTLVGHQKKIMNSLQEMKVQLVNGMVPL", "assay": "CEREP protein kinase assay", "assay_type": "biochemical"}, "IRAK1": {"target": "T3, IRAK1 (Homo sapiens, UniProt P51617)", "T3 construct": "purchased CEREP Panlabs (Eurofins)", "T3 sequence (P51617 whole entry)": "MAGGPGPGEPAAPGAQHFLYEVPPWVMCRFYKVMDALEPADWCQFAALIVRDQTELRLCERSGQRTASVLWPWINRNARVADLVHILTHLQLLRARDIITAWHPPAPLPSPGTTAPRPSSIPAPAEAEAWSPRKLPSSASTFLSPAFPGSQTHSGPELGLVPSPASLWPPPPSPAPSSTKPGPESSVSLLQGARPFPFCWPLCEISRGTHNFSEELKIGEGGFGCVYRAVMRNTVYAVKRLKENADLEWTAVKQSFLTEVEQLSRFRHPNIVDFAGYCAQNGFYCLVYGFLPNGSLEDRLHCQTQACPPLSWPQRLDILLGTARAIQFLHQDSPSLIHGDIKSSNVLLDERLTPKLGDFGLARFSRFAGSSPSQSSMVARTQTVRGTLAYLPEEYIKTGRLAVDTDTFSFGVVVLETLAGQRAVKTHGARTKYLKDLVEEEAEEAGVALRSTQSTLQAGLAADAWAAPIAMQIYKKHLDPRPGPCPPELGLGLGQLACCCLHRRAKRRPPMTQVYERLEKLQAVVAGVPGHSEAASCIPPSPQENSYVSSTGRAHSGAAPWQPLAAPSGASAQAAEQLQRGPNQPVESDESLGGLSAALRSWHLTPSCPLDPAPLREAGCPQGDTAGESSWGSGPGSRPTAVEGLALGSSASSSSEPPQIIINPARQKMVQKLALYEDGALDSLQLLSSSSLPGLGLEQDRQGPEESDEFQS", "assay": "CEREP protein kinase assay", "assay_type": "biochemical"}, "LCK": {"target": "T4, LCK (Homo sapiens, UniProt P06239)", "T4 construct": "purchased CEREP Panlabs (Eurofins)", "T4 sequence (P06239 whole entry)": "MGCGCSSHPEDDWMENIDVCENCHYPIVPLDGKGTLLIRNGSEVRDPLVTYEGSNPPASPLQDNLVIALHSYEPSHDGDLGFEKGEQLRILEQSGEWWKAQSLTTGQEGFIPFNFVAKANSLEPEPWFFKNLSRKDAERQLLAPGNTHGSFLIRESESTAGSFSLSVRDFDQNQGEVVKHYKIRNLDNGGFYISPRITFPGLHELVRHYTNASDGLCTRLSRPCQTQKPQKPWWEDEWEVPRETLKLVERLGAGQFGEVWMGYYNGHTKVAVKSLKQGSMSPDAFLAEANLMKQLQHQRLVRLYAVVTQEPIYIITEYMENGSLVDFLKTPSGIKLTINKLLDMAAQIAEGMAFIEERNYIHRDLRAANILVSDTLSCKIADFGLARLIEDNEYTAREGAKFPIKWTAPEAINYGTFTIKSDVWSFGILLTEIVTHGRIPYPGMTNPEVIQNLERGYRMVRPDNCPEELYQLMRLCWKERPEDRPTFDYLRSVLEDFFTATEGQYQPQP", "assay": "CEREP protein kinase assay", "assay_type": "biochemical"}, "NEK2": {"target": "T5, NEK2 (Homo sapiens, UniProt P51955)", "T5 construct": "purchased CEREP Panlabs (Eurofins)", "T5 sequence (P51955 1-445)": "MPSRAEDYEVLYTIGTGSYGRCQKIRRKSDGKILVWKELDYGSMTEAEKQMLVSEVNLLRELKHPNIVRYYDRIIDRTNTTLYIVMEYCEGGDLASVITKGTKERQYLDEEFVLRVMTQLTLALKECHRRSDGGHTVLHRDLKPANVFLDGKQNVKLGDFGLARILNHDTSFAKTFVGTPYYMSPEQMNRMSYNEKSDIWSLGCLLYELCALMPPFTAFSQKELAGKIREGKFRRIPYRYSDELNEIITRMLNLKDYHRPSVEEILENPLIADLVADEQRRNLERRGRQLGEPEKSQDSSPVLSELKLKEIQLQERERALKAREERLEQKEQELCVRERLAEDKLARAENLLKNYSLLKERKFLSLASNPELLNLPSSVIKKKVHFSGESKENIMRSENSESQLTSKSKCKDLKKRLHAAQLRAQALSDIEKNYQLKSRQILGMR", "assay": "CEREP protein kinase assay", "assay_type": "biochemical"}, "TRKB": {"target": "T6, TRKB (Homo sapiens, UniProt Q16620)", "T6 construct": "purchased CEREP Panlabs (Eurofins)", "T6 sequence (Q16620 32-822)": "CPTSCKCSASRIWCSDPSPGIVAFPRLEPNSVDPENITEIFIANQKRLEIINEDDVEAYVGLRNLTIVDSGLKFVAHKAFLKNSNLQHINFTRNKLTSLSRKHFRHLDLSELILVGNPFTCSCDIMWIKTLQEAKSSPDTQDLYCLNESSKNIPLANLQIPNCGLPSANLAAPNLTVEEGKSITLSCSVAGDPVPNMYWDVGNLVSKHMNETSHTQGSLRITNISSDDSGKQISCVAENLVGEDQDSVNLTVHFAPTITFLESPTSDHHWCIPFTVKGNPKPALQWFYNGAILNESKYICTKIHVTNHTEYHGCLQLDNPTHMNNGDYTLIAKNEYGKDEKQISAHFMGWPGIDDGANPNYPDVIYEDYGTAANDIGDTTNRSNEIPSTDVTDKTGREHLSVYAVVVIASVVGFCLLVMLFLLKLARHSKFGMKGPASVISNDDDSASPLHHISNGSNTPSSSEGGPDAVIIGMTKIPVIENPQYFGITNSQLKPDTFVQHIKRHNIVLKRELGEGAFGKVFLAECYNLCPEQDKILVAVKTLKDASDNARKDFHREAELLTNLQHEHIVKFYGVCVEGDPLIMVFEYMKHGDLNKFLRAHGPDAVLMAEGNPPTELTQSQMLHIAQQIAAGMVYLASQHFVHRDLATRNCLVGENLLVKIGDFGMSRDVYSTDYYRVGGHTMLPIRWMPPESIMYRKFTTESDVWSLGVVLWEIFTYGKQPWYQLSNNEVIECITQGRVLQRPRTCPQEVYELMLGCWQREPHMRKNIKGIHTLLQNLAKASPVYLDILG", "assay": "CEREP protein kinase assay", "assay_type": "biochemical"}}}
{"smiles": "O=c1[nH]ccc2cc(F)c(NS(=O)(=O)c3ccc(N4CC[C@@H](O)C4)s3)cc12", "note": "[LSN3213128, N-(6-Fluoro-1-oxo-1,2-dihydroisoquinolin-7-yl)-5-[(3R)-3-hydroxypyrrolidin-1-yl]thiophene-2-sulfonamide]", "values": [{"measurement": "GI50", "setting": "cell lines of Table 1; low folate, 12 cell lines", "result": "0.0044 ± 0.0045", "unit": "µM"}, {"measurement": "GI50", "setting": "cell lines of Table 1; regular RPMI, 11 cell lines", "result": 2.4, "unit": "µM"}, {"measurement": "AMPK T172 phosphorylation levels in vivo", "setting": "[1]", "result": "remained elevated"}, {"measurement": "P70S6K T389 phosphorylation", "setting": "[2]", "result": "showed no change"}, {"measurement": "% Inhibition", "setting": "AMPKA; @ 0.2 uM", "result": "-3.69 (26.6, n=2) %"}, {"measurement": "% Inhibition", "setting": "AMPKA; @ 2 uM", "result": "9.14 (16.7, n=2) %"}, {"measurement": "% Inhibition", "setting": "AMPKA; @ 20 uM", "result": "9.08 (3.34, n=2) %"}, {"measurement": "inhibition at 0.2 µM", "setting": "BRK; @ 0.2 uM", "result": -32.5, "unit": "%"}, {"measurement": "inhibition at 2 µM", "setting": "BRK; @ 2 uM", "result": -9.31, "unit": "%"}, {"measurement": "inhibition at 20 µM", "setting": "BRK; @ 20 uM", "result": -3.2, "unit": "%"}, {"measurement": "inhibition at 0.2 µM", "setting": "EPHA5; @ 0.2 uM", "result": 3.96, "unit": "%"}, {"measurement": "inhibition at 2 µM", "setting": "EPHA5; @ 2 uM", "result": 9.58, "unit": "%"}, {"measurement": "inhibition at 20 µM", "setting": "EPHA5; @ 20 uM", "result": 19.4, "unit": "%"}, {"measurement": "inhibition at 0.2 µM", "setting": "IRAK1; @ 0.2 uM", "result": -0.781, "unit": "%"}, {"measurement": "inhibition at 2 µM", "setting": "IRAK1; @ 2 uM", "result": 4.26, "unit": "%"}, {"measurement": "inhibition at 20 µM", "setting": "IRAK1; @ 20 uM", "result": 42.2, "unit": "%"}, {"measurement": "inhibition at 0.2 µM", "setting": "LCK; @ 0.2 uM", "result": -24.6, "unit": "%"}, {"measurement": "inhibition at 2 µM", "setting": "LCK; @ 2 uM", "result": -4.9, "unit": "%"}, {"measurement": "inhibition at 20 µM", "setting": "LCK; @ 20 uM", "result": 2.61, "unit": "%"}, {"measurement": "inhibition at 0.2 µM", "setting": "NEK2; @ 0.2 uM", "result": -9.52, "unit": "%"}, {"measurement": "inhibition at 2 µM", "setting": "NEK2; @ 2 uM", "result": 5.24, "unit": "%"}, {"measurement": "inhibition at 20 µM", "setting": "NEK2; @ 20 uM", "result": -6.75, "unit": "%"}, {"measurement": "inhibition at 0.2 µM", "setting": "TRKB; @ 0.2 uM", "result": 2.14, "unit": "%"}, {"measurement": "inhibition at 2 µM", "setting": "TRKB; @ 2 uM", "result": 3.76, "unit": "%"}, {"measurement": "inhibition at 20 µM", "setting": "TRKB; @ 20 uM", "result": 20.3, "unit": "%"}]}
